Experimental data from US20120101086A1, “THIADIAZOLE DERIVATIVES AND THEIR USE FOR THE TREATMENT OF DISORDERS MEDIATED BY S1P1 RECEPTORS” (GLAXO GROUP LIMITED, priority 2009, published 2012).
Where a name gives a salt, the structure may show the parent alone.

Columns and labels:
S1P1 [1] = biological target: T1, S1P1 (Homo sapiens, UniProt P21453); experiment: S1P-1 β-Arrestin recruitment assay; assay type: cell-based; parameters: host or cells: PathHunter CHO-K1 EDG1 β-Arrestin cell line; conditions: PathHunter CHO-K1 EDG1 β-Arrestin cell line, chemi-luminescence
T1 sequence (P21453 whole entry, the tested form may be a part): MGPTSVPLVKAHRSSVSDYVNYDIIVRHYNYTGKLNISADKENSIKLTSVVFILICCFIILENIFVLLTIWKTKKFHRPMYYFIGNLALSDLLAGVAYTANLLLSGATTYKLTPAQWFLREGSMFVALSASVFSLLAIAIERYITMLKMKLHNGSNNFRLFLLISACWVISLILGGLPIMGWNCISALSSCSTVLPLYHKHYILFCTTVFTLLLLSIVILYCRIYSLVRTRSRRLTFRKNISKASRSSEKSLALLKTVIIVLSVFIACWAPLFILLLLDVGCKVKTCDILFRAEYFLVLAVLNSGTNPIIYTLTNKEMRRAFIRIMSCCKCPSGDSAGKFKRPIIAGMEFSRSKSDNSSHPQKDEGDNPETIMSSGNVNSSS
Method: β-Arrestin recruitment assays were carried out using the PathHunter CHO-K1 EDG1 β-Arrestin cell line (DiscoveRx Corporation) in a chemi-luminescence detection assay. This cell line stably expresses β-Arrestin 2 and S1P1 fused to complementing portions of β-galactosidase (‘EA’ and ‘pro-link’, respectively) which associate upon Arrestin recruitment to form functional β-galactosidase enzyme.
Cells were grown to 80% confluency in Growth Medium (F12 nutrient HAMS supplemented with 10% heat-inactivated USA FBS, 1% L-glutamax, 800 m/ml Geneticin and 300 m/ml Hygromycin). Cells were harvested from the flask using Enzyme Free Cell Dissociation Buffer (Gibco) and washed from flasks with Optimem solution (Gibco). Cells were then centrifuged at 1000 rpm for 2-3 min and resuspended in Assay Buffer (Prepared from Sigma kit H1387 supplemented with 20 ml/L HEPES, 4.7 ml/L NaHCO3, 0.1% pluronic acid F-68 solution, 0.1% BSA and adjusted to pH 7.4 using sodium hydroxide at 1×10^6 cells/ml. Cells were dispensed into assay plates containing compounds (100n1/well of a solution of test compound in 100% DMSO) at 1×10^4 cells/well and incubated at 37° C./5% CO2 for 90 min followed by 15 min at room temperature. 5 μl detection mix (1 part Galacton Star, 5 parts Emerald II, 19 parts Assay Buffer; DiscoveRx) were added per well and the plates incubated at room temperature for 60 min. Luminescence was quantified using a Viewlux plate reader.

S1P1 [2] = biological target: T1, S1P1; experiment: S1P1 GTPγS assay; assay type: biochemical; parameters: expressed in transfected cells; host or cells: RH7777 cells (membranes); conditions: tested in one of the above S1P1 assays (two protocols)
Method: The potencies and efficacies of the compounds of this invention for the S1P1 receptor can be determined by GTPγS assay performed on the human cloned receptor as described herein. […] All steps were performed at 4° C. Cells were homogenised within a glass Waring blender for 2 bursts of 15 secs in 200 mls of buffer (50 mM HEPES, 1 mM leupeptin, 25 m/ml bacitracin, 1 mM EDTA, 1 mM PMSF, 2 μM pepstatin A). The blender was plunged into ice for 5 mins after the first burst and 10-40 mins after the final burst to allow foam to dissipate. The material was then spun at 500 g for 20 mins and the supernatant spun for 36 mins at 48,000 g. The pellet was resuspended in the same buffer as above but without PMSF and pepstatin A. The material was then forced through a 0.6 mm needle, made up to the required volume, (usually ×4 the volume of the original cell pellet), aliquoted and stored frozen at—80° C. S1P1 expressing RH7777 membranes (1.5 μg/well) membranes (1.5 μg/well) were homogenised by passing through a 23G needle. These were then adhered to WGA-coated SPA beads (0.125 mg/well) in assay buffer (HEPES 20 mM, MgCl2, 10 mM, NaCl 100 mM and pH adjusted to 7.4 using KOH 5M). GDP 10 μM FAC and saponin 90 μg/ml FAC were also added After 30 minutes precoupling on ice, the bead and membrane suspension was dispensed into white Greiner polypropylene LV 384-well plates (5 μl/well), containing 0.1 μl of compound. 5 μl/well [^35S]-GTPγS (0.5 nM for S1P1 or 0.3 nM for S1P3 final radioligand concentration) made in assay buffer was then added to the plates. The final assay cocktail (10.1 μl) was then sealed, spun on a centrifuge, then read immediately on a Viewlux instrument. Alternatively, after 30 minutes precoupling on ice, the bead and membrane suspension was mixed with ^35S]-GTPγS (0.5 nM final radioligand concentration) in assay buffer (HEPES 20 mM, MgCl2 10 mM, NaCl 100 mM and pH adjusted to 7.4 using KOH 5M) in a 1:1 ratio. The bead, membrane and radioligand suspension was dispensed into white Greiner polypropylene low volume 384-well plates (10 μl/well), containing 0.1 μl of a solution of test compound in 100% DMSO. The final assay cocktail (10.1 μl) was then sealed, spun on a centrifuge, then read immediately on a Viewlux instrument.

circulating lymphocytes = conditions: animals and man; cited from earlier work
[3] = clinical studies, first 24 hours of treatment; cited from earlier work

Row | Compound | EC50 (S1P1 [1]) | also measured
1 | CC(C)Oc1ccc(-c2nnc(-n3cc4c(n3)CCN(CCCC(=O)O)C4)s2)cc1Cl [Example 7, 4-[2-(5-{3-Chloro-4-[(1-methylethyl)oxy]phenyl}-1,3,4-thiadiazol-2-yl)-2,4,6,7-tetrahydro-5H-pyrazolo[4,3-c]pyridin-5-yl]butanoic acid] | ≤ 10 nM | EC50 (S1P1 [2]): ≤ 100 nM
2 | Cc1c2c(nn1-c1nnc(-c3ccc(OC(C)C)c(C#N)c3)s1)CCN(C[C@H](O)CO)C2 [Example 26, 5-(5-{5-[(2S)-2,3-dihydroxypropyl]-3-methyl-4,5,6,7-tetrahydro-2H-pyrazolo[4,3-c]pyridin-2-yl}-1,3,4-thiadiazol-2-yl)-2-[(1-methylethyl)oxy]benzonitrile] | ≤ 10 nM | –
3 | Cc1c2c(nn1-c1nnc(-c3ccc(OC(C)C)c(C#N)c3)s1)CCN(C(=O)CNC[C@H](C)O)C2 [Example 33, 5-[5-(5-{N-[(2S)-2-hydroxypropyl]glycyl}-3-methyl-4,5,6,7-tetrahydro-2H-pyrazolo[4,3-c]pyridin-2-yl)-1,3,4-thiadiazol-2-yl]-2-[(1-methylethyl)oxy]benzonitrile] | ≤ 100 nM | –
4 | Cc1c2c(nn1-c1nnc(-c3ccc(OC(C)C)c(Cl)c3)s1)CCN(C[C@H](O)CO)C2 [Example 42, (2S)-3-[2-(5-{3-chloro-4-[(1-methylethyl)oxy]phenyl}-1,3,4-thiadiazol-2-yl)-3-methyl-2,4,6,7-tetrahydro-5H-pyrazolo[4,3-c]pyridin-5-yl]-1,2-propanediol formic acid salt] | ≤ 100 nM | –
5 | Cc1c2c(nn1-c1nnc(-c3ccc(OC(C)C)c(C#N)c3)s1)CCNC2 [Example 3, 2-[(1-Methylethyl)oxy]-5-[5-(3-methyl-4,5,6,7-tetrahydro-2H-pyrazolo[4,3-c]pyridin-2-yl)-1,3,4-thiadiazol-2-yl]benzonitrile] | ≤ 100 nM | –
6 | CC(C)Oc1ccc(-c2nnc(-n3cc4c(n3)CCN(CCC(=O)O)C4)s2)cc1C#N [Example 12, 3-[2-(5-{3-Cyano-4-[(1-methylethyl)oxy]phenyl}-1,3,4-thiadiazol-2-yl)-2,4,6,7-tetrahydro-5H-pyrazolo[4,3-c]pyridin-5-yl]propanoic acid] | ≤ 10 nM | EC50 (S1P1 [2]): ≤ 100 nM
7 | COC(=O)[C@H](O)CN1CCc2nn(-c3nnc(-c4ccc(OC(C)C)c(Cl)c4)s3)c(C)c2C1 [Example 41, methyl (2R)-3-[2-(5-{3-chloro-4-[(1-methylethyl)oxy]phenyl}-1,3,4-thiadiazol-2-yl)-3-methyl-2,4,6,7-tetrahydro-5H-pyrazolo[4,3-c]pyridin-5-yl]-2-hydroxypropanoate] | ≤ 10 nM | –
8 | Cc1c2c(nn1-c1nnc(-c3ccc(OC(C)C)c(C#N)c3)s1)CCN(CCC(N)=O)C2 [Example 5, 3-[2-(5-{3-Cyano-4-[(1-methylethyl)oxy]phenyl}-1,3,4-thiadiazol-2-yl)-3-methyl-2,4,6,7-tetrahydro-5H-pyrazolo[4,3-c]pyridin-5-yl]propanamide] | ≤ 10 nM | –
9 | CCCCCCCCc1ccc(CCC(N)(CO)CO)cc1 [FTY720] | – | effect on circulating lymphocytes (circulating lymphocytes): reduce circulating lymphocytes; bradycardia [3]: results in bradycardia
10 | Cc1c2c(nn1-c1nnc(-c3ccc(OC(C)C)c(C#N)c3)s1)CCN(C(=O)CNCCO)C2 [Example 35, 5-(5-{5-[N-(2-hydroxyethyl)glycyl]-3-methyl-4,5,6,7-tetrahydro-2H-pyrazolo[4,3-c]pyridin-2-yl}-1,3,4-thiadiazol-2-yl)-2-[(1-methylethyl)oxy]benzonitrile] | ≤ 10 nM | –
11 | Cc1c2c(nn1-c1nnc(-c3ccc(OC(C)C)c(C#N)c3)s1)CCN(CCC(=O)O)C2 [Example 4, 3-[2-(5-{3-Cyano-4-[(1-methylethyl)oxy]phenyl}-1,3,4-thiadiazol-2-yl)-3-methyl-2,4,6,7-tetrahydro-5H-pyrazolo[4,3-c]pyridin-5-yl]propanoic acid trifluoroacetic acid salt] | ≤ 10 nM | –
12 | CC(C)Oc1ccc(-c2nnc(-n3cc4c(n3)CCN(CCC(=O)O)C4)s2)cc1Cl [Example 8, 3-[2-(5-{3-Chloro-4-[(1-methylethyl)oxy]phenyl}-1,3,4-thiadiazol-2-yl)-2,4,6,7-tetrahydro-5H-pyrazolo[4,3-c]pyridin-5-yl]propanoic acid] | ≤ 10 nM | EC50 (S1P1 [2]): ≤ 100 nM
13 | Cc1c2c(nn1-c1nnc(-c3ccc(OC(C)C)c(C#N)c3)s1)CCN(C(CO)CO)C2 [Example 25, 5-(5-{5-[2-hydroxy-1-(hydroxymethyl)ethyl]-3-methyl-4,5,6,7-tetrahydro-2H-pyrazolo[4,3-c]pyridin-2-yl}-1,3,4-thiadiazol-2-yl)-2-[(1-methylethyl)oxy]benzonitrile] | ≤ 10 nM | –
14 | Cc1c2c(nn1-c1nnc(-c3ccc(OC(C)C)c(Cl)c3)s1)CCN(CCC(=O)O)C2 [Example 2, 3-[2-(5-{3-Chloro-4-[(1-methylethyl)oxy]phenyl}-1,3,4-thiadiazol-2-yl)-3-methyl-2,4,6,7-tetrahydro-5H-pyrazolo[4,3-c]pyridin-5-yl]propanoic acid] | ≤ 10 nM | EC50 (S1P1 [2]): ≤ 10 nM
15 | Cc1c2c(nn1-c1nnc(-c3ccc(OC(C)C)c(C#N)c3)s1)CCN(C(=O)CNC[C@H](O)CO)C2 [Example 34, 5-[5-(5-{N-[(2S)-2,3-dihydroxypropyl]glycyl}-3-methyl-4,5,6,7-tetrahydro-2H-pyrazolo[4,3-c]pyridin-2-yl)-1,3,4-thiadiazol-2-yl]-2-[(1-methylethyl)oxy]benzonitrile] | ≤ 10 nM | –
16 | Cc1c2c(nn1-c1nnc(-c3ccc(OC(C)C)c(C#N)c3)s1)CCN(C(=O)CNC(CO)CO)C2 [Example 36, 5-[5-(5-{N-[2-hydroxy-1-(hydroxymethyl)ethyl]glycyl}-3-methyl-4,5,6,7-tetrahydro-2H-pyrazolo[4,3-c]pyridin-2-yl)-1,3,4-thiadiazol-2-yl]-2-[(1-methylethyl)oxy]benzonitrile] | ≤ 10 nM | –
17 | Cc1c2c(nn1-c1nnc(-c3ccc(OC(C)C)c(C#N)c3)s1)CCN(C(=O)CN[C@H](C)CO)C2 [Example 30, 5-[5-(5-{N—[(1R)-2-hydroxy-1-methylethyl]glycyl}-3-methyl-4,5,6,7-tetrahydro-2H-pyrazolo[4,3-c]pyridin-2-yl)-1,3,4-thiadiazol-2-yl]-2-[(1-methylethyl)oxy]benzonitrile] | ≤ 10 nM | –
18 | CC(C)Oc1ccc(-c2nnc(-n3ncc4c3CCN(CCC(=O)O)C4)s2)cc1Cl [Example 15, 3-[1-(5-{3-Chloro-4-[(1-methylethyl)oxy]phenyl}-1,3,4-thiadiazol-2-yl)-1,4,6,7-tetrahydro-5H-pyrazolo[4,3-c]pyridin-5-yl]propanoic acid] | ≤ 100 nM | –
19 | CC(C)Oc1ccc(-c2nnc(-n3cc4c(n3)CCN(CCCC(=O)O)C4)s2)cc1C#N [Example 13, 4-[2-(5-{3-Cyano-4-[(1-methylethyl)oxy]phenyl}-1,3,4-thiadiazol-2-yl)-2,4,6,7-tetrahydro-5H-pyrazolo[4,3-c]pyridin-5-yl]butanoic acid] | ≤ 10 nM | –
